Laboratory results from patent publication US9751869B2, “LXR modulators” (BRISTOL-MYERS SQUIBB COMPANY, priority 2013, dated 2017).
One block for each compound: values may come before it.

Molecular target: T1, LXRβ (Homo sapiens, UniProt P55055)
T1 construct: Co-transfection expression plasmids, comprising full-length LXRα (pCMX-h LXRα or LXRβ (pCMX-hLXRβ)); expressed in transfected cells; host or cells: CV-1 African green monkey kidney cells, transient transfection with pCMX-hLXRβ
T1 sequence (P55055 1-460): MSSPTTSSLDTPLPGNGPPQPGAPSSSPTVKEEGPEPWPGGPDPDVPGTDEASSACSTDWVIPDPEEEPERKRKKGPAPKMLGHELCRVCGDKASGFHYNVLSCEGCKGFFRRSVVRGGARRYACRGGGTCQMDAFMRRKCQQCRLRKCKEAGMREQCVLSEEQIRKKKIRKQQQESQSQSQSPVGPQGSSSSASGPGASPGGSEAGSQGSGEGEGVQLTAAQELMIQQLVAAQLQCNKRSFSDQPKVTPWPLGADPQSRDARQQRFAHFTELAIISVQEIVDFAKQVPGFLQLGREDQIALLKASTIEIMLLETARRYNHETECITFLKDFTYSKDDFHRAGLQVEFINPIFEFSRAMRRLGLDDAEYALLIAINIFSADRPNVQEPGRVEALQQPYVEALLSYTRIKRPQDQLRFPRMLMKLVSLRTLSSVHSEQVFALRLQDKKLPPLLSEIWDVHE
T1 sequence (P19793 1-462 partner): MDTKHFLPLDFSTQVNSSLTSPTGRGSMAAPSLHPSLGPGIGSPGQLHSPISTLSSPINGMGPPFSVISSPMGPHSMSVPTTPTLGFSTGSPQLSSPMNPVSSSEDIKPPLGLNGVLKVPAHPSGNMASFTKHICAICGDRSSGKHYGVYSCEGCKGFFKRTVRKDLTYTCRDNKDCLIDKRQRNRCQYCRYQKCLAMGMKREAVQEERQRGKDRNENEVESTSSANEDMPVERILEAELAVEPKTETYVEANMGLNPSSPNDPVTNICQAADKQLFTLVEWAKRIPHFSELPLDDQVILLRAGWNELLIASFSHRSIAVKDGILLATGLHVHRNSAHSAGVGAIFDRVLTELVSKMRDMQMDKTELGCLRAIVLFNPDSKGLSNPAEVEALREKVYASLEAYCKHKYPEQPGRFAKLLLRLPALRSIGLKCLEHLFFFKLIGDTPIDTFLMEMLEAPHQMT
Test: LXR/LXRE co-transfection assay (luciferase reporter) in CV-1 cells, LXRβ
Format: cell-based
Conditions: for EC50: CV-1 cells transfected with pCMX-hLXRβ and LXREx1-Tk-Luciferase, 20 hours incubation, read-out: LXRbeta agonism EC50; for Emax / LXRbeta % EFFICACY: CV-1 cells, relative to maximum response of high control N-(3-((4-fluorophenyl)-(naphthalene-2-sulfonyl)amino)propyl)-2,2-dimethylpropionamide; for Emax: read-out: LXRbeta % EFFICACY
Method in brief: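 CV-1 cells transiently co-transfected with full-length human LXRβ, LXRE-Tk-luciferase reporter and β-galactosidase control, then exposed to compound (≤0.5% DMSO) for 20 h at 37 °C before luminescence read. EC50 from 10-point, half-log dose curves; efficacy relative to the sulfonamide high control, means of 2–3 experiments.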

Structure (SMILES): Cc1nc(-c2ccc3c(c2)OC(F)(F)O3)c(-c2cc(-c3cccc(S(C)(=O)=O)c3)ccc2-c2cc(C(=O)NCC(F)(F)F)nn2C)o1 [Example 111, 5-(3-(4-(2,2-difluorobenzo[d][1,3]dioxol-5-yl)-2-methyloxazol-5-yl)-3′-(methylsulfonyl)-[1,1′-biphenyl]-4-yl)-1-methyl-N-(2,2,2-trifluoroethyl)-1H-pyrazole-3-carboxamide]
EC50: 284 nM
Emax: 51%

Structure (SMILES): Cc1nc(-c2ccc3c(c2)OC(F)(F)O3)c(-c2cc(-c3cccc(S(C)(=O)=O)c3)ccc2-c2cc(C(=O)NC(C)(C)C)nn2C)o1 [Example 113, N-(tert-butyl)-5-(3-(4-(2,2-difluorobenzo[d][1,3]dioxol-5-yl)-2-methyloxazol-5-yl)-3′-(methylsulfonyl)-[1,1′-biphenyl]-4-yl)-1-methyl-1H-pyrazole-3-carboxamide]
EC50: 344 nM
Emax: 37%

Structure (SMILES): Cc1nc(-c2ccc3c(c2)OC(F)(F)O3)c(-c2cc(-c3cc(F)c(CO)c(S(C)(=O)=O)c3)ccc2-c2cc(C(C)C#N)nn2C)o1 (centres unmarked) [Example 115, 2-(5-(3-(4-(2,2-difluorobenzo[d][1,3]dioxol-5-yl)-2-methyloxazol-5-yl)-3′-fluoro-4′-(hydroxymethyl)-5′-(methylsulfonyl)-[1,1′-biphenyl]-4-yl)-1-methyl-1H-pyrazol-3-yl)propanenitrile]
EC50: 19 nM
Emax: 62%

Structure (SMILES): Cc1nc(-c2ccc3c(c2)OC(F)(F)O3)c(-c2cc(-c3cccc(S(C)(=O)=O)c3)ccc2-c2cc(C(C)C#N)nn2C)o1 (centres unmarked) [Example 116, 2-(5-(3-(4-(2,2-difluorobenzo[d][1,3]dioxol-5-yl)-2-methyloxazol-5-yl)-3′-(methylsulfonyl)-[1,1′-biphenyl]-4-yl)-1-methyl-1H-pyrazol-3-yl)propanenitrile]
EC50: 26 nM
LXRbeta % EFFICACY: 99%

Structure (SMILES): Cc1nc(-c2ccc3c(c2)OC(F)(F)O3)c(-c2cc(-c3cc(F)c(CO)c(S(C)(=O)=O)c3)ccc2-c2cc(CC(C)(C)O)nn2C)o1 [Example 120, 1-(5-(3-(4-(2,2-difluorobenzo[d][1,3]dioxol-5-yl)-2-methyloxazol-5-yl)-3′-fluoro-4′-(hydroxymethyl)-5′-(methylsulfonyl)-[1,1′-biphenyl]-4-yl)-1-methyl-1H-pyrazol-3-yl)-2-methylpropan-2-ol]
EC50: 46 nM
Emax: 32%

Structure (SMILES): Cc1nc(-c2ccc3c(c2)OC(F)(F)O3)c(-c2cc(-c3cccc(S(C)(=O)=O)c3)ccc2-c2cc(CC(C)(C)O)nn2C)o1 [Example 121, 1-(5-(3-(4-(2,2-difluorobenzo[d][1,3]dioxol-5-yl)-2-methyloxazol-5-yl)-3′-(methylsulfonyl)-[1,1′-biphenyl]-4-yl)-1-methyl-1H-pyrazol-3-yl)-2-methylpropan-2-ol]
EC50: 175 nM
Emax: 40%

Structure (SMILES): Cc1nc(-c2ccc3c(c2)OC(F)(F)O3)c(-c2cc(-c3cc(F)c(CO)c(S(C)(=O)=O)c3)ccc2-c2cc(C#N)nn2C)o1 [Example 122, 5-(3-(4-(2,2-difluorobenzo[d][1,3]dioxol-5-yl)-2-methyloxazol-5-yl)-3′-fluoro-4′-(hydroxymethyl)-5′-(methylsulfonyl)-[1,1′-biphenyl]-4-yl)-1-methyl-1H-pyrazole-3-carbonitrile]
EC50: 63 nM
Emax: 22%

Structure (SMILES): Cc1nc(-c2ccc3c(c2)OC(F)(F)O3)c(-c2cc(-c3cccc(S(C)(=O)=O)c3)ccc2-c2cc(C#N)nn2C)o1 [Example 123, 5-(3-(4-(2,2-difluorobenzo[d][1,3]dioxol-5-yl)-2-methyloxazol-5-yl)-3′-(methylsulfonyl)-[1,1′-biphenyl]-4-yl)-1-methyl-1H-pyrazole-3-carbonitrile]
EC50: 94 nM
Emax: 35%

Structure (SMILES): Cc1nc(-c2ccc(OC(F)(F)F)cc2)c(-c2cc(-c3cc(Cl)c(CO)c(S(C)(=O)=O)c3)ccc2-c2cc(C(F)(F)F)nn2C)o1 [Example 125, (3-chloro-4′-(1-methyl-3-(trifluoromethyl)-1H-pyrazol-5-yl)-3′-(2-methyl-4-(4-(trifluoromethoxy)phenyl)oxazol-5-yl)-5-(methylsulfonyl)-[1,1′-biphenyl]-4-yl)methanol]
EC50: 179 nM
Emax: 88%

Structure (SMILES): Cc1nc(-c2ccc(OC(F)(F)F)cc2)c(-c2cc(-c3cccc(S(N)(=O)=O)c3)ccc2-c2cc(C(F)(F)F)nn2C)o1 [Example 126, 4′-(1-methyl-3-(trifluoromethyl)-1H-pyrazol-5-yl)-3′-(2-methyl-4-(4-(trifluoromethoxy)phenyl)oxazol-5-yl)-[1,1′-biphenyl]-3-sulfonamide]
EC50: 299 nM
Emax: 85%

Structure (SMILES): CNS(=O)(=O)c1cccc(-c2ccc(-c3cc(C(F)(F)F)nn3C)c(-c3oc(C)nc3-c3ccc(OC(F)(F)F)cc3)c2)c1 [Example 127, N-methyl-4′-(1-methyl-3-(trifluoromethyl)-1H-pyrazol-5-yl)-3′-(2-methyl-4-(4-(trifluoromethoxy)phenyl)oxazol-5-yl)-[1,1′-biphenyl]-3-sulfonamide]
EC50: 59 nM
Emax: 99%

The remaining compounds from weak to strong by EC50, led by results:

EC50: 1080 nM
Emax: 60%
Structure (SMILES): Cc1nc(-c2ccc3c(c2)OC(F)(F)O3)c(-c2cc(-c3cccc(S(C)(=O)=O)c3)ccc2-c2cc(CC(N)=O)nn2C)o1 [Example 119, 2-(5-(3-(4-(2,2-difluorobenzo[d][1,3]dioxol-5-yl)-2-methyloxazol-5-yl)-3′-(methylsulfonyl)-[1,1′-biphenyl]-4-yl)-1-methyl-1H-pyrazol-3-yl)acetamide]

EC50: 769 nM
Emax: 24%
Structure (SMILES): Cc1nc(-c2ccc(OC(F)(F)F)cc2)c(-c2cc(-c3cccc(S(C)(=O)=O)c3)ccc2-c2cc(C(=O)NCC(C)(C)O)nn2C)o1 [Example 124]

EC50: 273 nM
Emax: 28%
Structure (SMILES): Cc1nc(-c2ccc3c(c2)OC(F)(F)O3)c(-c2cc(-c3cc(F)c(CO)c(S(C)(=O)=O)c3)ccc2-c2cc(C(=O)NC(C)(C)C)nn2C)o1 [Example 114, N-(tert-butyl)-5-(3-(4-(2,2-difluorobenzo[d][1,3]dioxol-5-yl)-2-methyloxazol-5-yl)-3′-fluoro-4′-(hydroxymethyl)-5′-(methylsulfonyl)-[1,1′-biphenyl]-4-yl)-1-methyl-1H-pyrazole-3-carboxamide]

EC50: 257 nM
Emax: 33%
Structure (SMILES): Cc1nc(-c2ccc3c(c2)OC(F)(F)O3)c(-c2cc(-c3cc(F)c(CO)c(S(C)(=O)=O)c3)ccc2-c2cc(C(=O)NCC(F)(F)F)nn2C)o1 [Example 112, 5-(3-(4-(2,2-difluorobenzo[d][1,3]dioxol-5-yl)-2-methyloxazol-5-yl)-3′-fluoro-4′-(hydroxymethyl)-5′-(methylsulfonyl)-[1,1′-biphenyl]-4-yl)-1-methyl-N-(2,2,2-trifluoroethyl)-1H-pyrazole-3-carboxamide]

EC50: 244 nM
Emax: 55%
Structure (SMILES): Cc1nc(-c2ccc3c(c2)OC(F)(F)O3)c(-c2cc(-c3cc(F)c(CO)c(S(C)(=O)=O)c3)ccc2-c2cc(C(=O)NCC3CC3)nn2C)o1 [Example 110, N-(cyclopropylmethyl)-5-(3-(4-(2,2-difluorobenzo[d][1,3]dioxol-5-yl)-2-methyloxazol-5-yl)-3′-fluoro-4′-(hydroxymethyl)-5′-(methylsulfonyl)-[1,1′-biphenyl]-4-yl)-1-methyl-1H-pyrazole-3-carboxamide]

EC50: 159 nM
Emax: 44%
Structure (SMILES): Cc1nc(-c2ccc(OC(F)(F)F)cc2)c(-c2cc(-c3cccc(S(C)(=O)=O)c3)ccc2-c2cc(C(F)(F)C(N)=O)nn2C)o1 [Example 128]

EC50: 49 nM
LXRbeta % EFFICACY: 70%
Structure (SMILES): Cc1nc(-c2ccc3c(c2)OC(F)(F)O3)c(-c2cc(-c3cccc(S(C)(=O)=O)c3)ccc2-c2cc(C(C)C#N)nn2C)o1 (centres unmarked) [Example 117, 2-(5-(3-(4-(2,2-difluorobenzo[d][1,3]dioxol-5-yl)-2-methyloxazol-5-yl)-3′-(methylsulfonyl)-[1,1′-biphenyl]-4-yl)-1-methyl-1H-pyrazol-3-yl)propanenitrile]

EC50: 7 nM
Emax: 86%
Structure (SMILES): Cc1nc(-c2ccc3c(c2)OC(F)(F)O3)c(-c2cc(-c3cccc(S(C)(=O)=O)c3)ccc2-c2cc(C3(C#N)CC3)nn2C)o1 [Example 118, 1-(5-(3-(4-(2,2-difluorobenzo[d][1,3]dioxol-5-yl)-2-methyloxazol-5-yl)-3′-(methylsulfonyl)-[1,1′-biphenyl]-4-yl)-1-methyl-1H-pyrazol-3-yl) cyclopropanecarbonitrile]
